Reference: US20260374766A1, “METHODS FOR TREATING CANCER” (Antares Therapeutics, Inc., priority 2022, published 2026)
Where a name gives a salt, the structure may show the parent alone.

Columns and labels:
[1] = target: T1, p53 Y220C mutant protein (amino acid residues 94-293) (Homo sapiens, UniProt P04637, Y220C); test: Thermal Shift Assay (TSA), dTM; assay type: binding; conditions: thermal shift, 100 uM compound; read-out: TSA P53 Y220C dTM (100 uM)
T1 construct: p53 Y220C mutant protein (amino acid residues 94-293)
Procedure: Thermal Shift Assay (TSA) Protocol
5 μM recombinant p53 Y220C mutant protein (amino acid residues 94-293) was incubated with 10 μM or 100 μM compound for 3 hours at 20 °C in buffer containing 20 mM HEPES, pH7.4, 100 mM NaCl, 0.01% Pluronic F-127, and 1% DMSO in the presence of 400-fold diluted Sypro Orange (ThermoFisher Scientific catalog number 4461146), on a 384-well PCR plate (Applied Biosystems catalog number 4483285). The volume was 5 μL/well. The sealed plate was then loaded onto a QuantStudio 7 Flex instrument for melting temperature (TM) measurement. The temperature was increased from 30 °C to […], at a rate of 0.03 °C/second. Data were fit into a Boltzmann two-state model to determine the TM.

p53 Y220C = p53 Y220C (Homo sapiens, UniProt P04637, Y220C); test: Luciferase Reporter Assay (Luc), p53 response element, NClH1299 cells with inducible p53 Y220C; assay type: cell-based; conditions: luciferase reporter, NClH1299 inducible p53 Y220C, 6 hour; for Emax: 10 uM tool compound as positive control; for AC50: read-out: Luc P53 Y220C AC50
Procedure, shortened: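 Luminescence readout (One-Glo, 5 min shaking at RT, read at once) after 6 h compound exposure; cells pre-induced 24 h with 0.5 ug/mL doxycycline, 5,000/well.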

NUGC3 p53 Y220C = test: Cell Proliferation Assay (CellTiter-Glo, CTG), NUGC3 p53 Y220C; assay type: cell-based; conditions: Homo sapiens, NUGC-3, 120 h, CellTiter-Glo, NUGC3 p53 Y220C, 5 days
Procedure, shortened: (§1)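 Tet-One inducible p53 Y220C or R273H constructs were stably introduced into NCI-H1299 by lentiviral transduction; NUGC3 was used as is. Cells (250-500 per well) were exposed to compound for 5 days, then CellTiter-Glo was added for 10 min at room temperature and IC50 was calculated from luminescence.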

H1299 p53 Y220C = test: Cell Proliferation Assay (CellTiter-Glo, CTG), H1299 p53 Y220C (NClH1299-inducible p53 Y220C); assay type: cell-based; conditions: Homo sapiens, NCI-H1299, 120 h, CellTiter-Glo, H1299 p53 Y220C, 5 days
Procedure, shortened: as §1

H1299 p53 R273H = test: Cell Proliferation Assay (CellTiter-Glo, CTG), H1299 p53 R273H (NClH1299-inducible p53 R273H); assay type: cell-based; conditions: Homo sapiens, NCI-H1299, 120 h, CellTiter-Glo, H1299 p53 R273H, 5 days
Procedure, shortened: as §1

[2] = target: T1, p53 Y220C mutant protein (amino acid residues 94-293); test: Surface Plasmon Resonance (SPR) assay, Kd_kinetic; assay type: binding; conditions: SPR, kinetic KD, p53 Y220C; read-out: SPR P53 Y220C KD kinetic
Procedure, shortened: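 Kinetic dissociation constants derived by 1:1 model fit of SPR data acquired at 16 or 20 °C, pH 7.5 Tris/NaCl running buffer with 1% DMSO.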

SMILES | ΔTm at 100 µM [1] | Emax (p53 Y220C) | AC50 (p53 Y220C) | IC50 (NUGC3 p53 Y220C) | IC50 (H1299 p53 Y220C) | IC50 (H1299 p53 R273H) | Kd [2]
COc1cc(S(C)(=O)=O)ccc1NCC#Cc1nc2c(NC3CCN(C(C)=O)CC3)cccn2c1CC(F)(F)F [Example 10, 1-{4-[(2-{3-[(4-methanesulfonyl-2-methoxyphenyl)amino]prop-1-yn-1-yl}-3-(2,2,2-trifluoroethyl)imidazo[1,2-a]pyridin-8-yl)amino]piperidin-1-yl}ethanone] | 5 to 10 °C | 80 to 90% | > 3 µM | > 3000 nM | 1500 to 3000 nM | ≥ 10 µM | –
C=C(C)C(=O)Nc1cc(NC2CCN(C)CC2)c2nc(C#CCNc3ccc(C(=O)NC)cc3OC)c(CC(F)(F)F)n2c1 [Example 13, 3-methoxy-N-methyl-4-[(3-{8-[(1-methylpiperidin-4-yl)amino]-6-(2-methylprop-2-enamido)-3-(2,2,2-trifluoroethyl)imidazo[1,2-a]pyridin-2-yl}prop-2-yn-1-yl)amino]benzamide, formic acid salt] | 1 to 5 °C | < 70% | – | > 3000 nM | > 3000 nM | ≥ 10 µM | –
CC#Cc1nc2c(N[C@@H]3CCN(C)C[C@@H]3F)cccn2c1CC(F)(F)F [Example 18, (3S,4R)-3-fluoro-1-methyl-N-[2-(prop-1-yn-1-yl)-3-(2,2,2-trifluoroethyl)imidazo[1,2-a]pyridin-8-yl]piperidin-4-amine] | 5 to 10 °C | < 70% | > 3 µM | – | > 3000 nM | ≥ 10 µM | 10 to 100 nM
CC#Cc1nc2c(NC3CCN(C)CC3)cccn2c1CC(F)(F)F [Example 19, 1-methyl-N-[2-(prop-1-yn-1-yl)-3-(2,2,2-trifluoroethyl)imidazo[1,2-a]pyridin-8-yl]piperidin-4-amine] | 5 to 10 °C | < 70% | > 3 µM | – | > 3000 nM | ≥ 10 µM | 100 to 1000 nM
C=Cc1c(C#CC)nc2c(NC3CCN(C)CC3)cccn12 [Example 21, N-[3-ethenyl-2-(prop-1-yn-1-yl)imidazo[1,2-a]pyridin-8-yl]-1-methylpiperidin-4-amine] | 1 to 5 °C | – | – | – | – | – | –
C=CC(=O)Nc1c(C#CCNc2ccc(C(=O)NC)cc2OC)nc2c(N[C@@H]3CCN(C)C[C@@H]3F)cccn12 [Example 23, 4-{[3-(8-{[(3S,4R)-3-fluoro-1-methylpiperidin-4-yl]amino}-3-(prop-2-enamido)imidazo[1,2-a]pyridin-2-yl)prop-2-yn-1-yl]amino}-3-methoxy-N-methylbenzamide] | 5 to 10 °C | < 70% | > 3 µM | > 3000 nM | > 3000 nM | ≥ 10 µM | –
C=CC(=O)N(C)c1c(C#CCNc2ccc(C(=O)NC)cc2OC)nc2c(N[C@@H]3CCN(C)C[C@@H]3F)cccn12 [Example 26, 4-{[3-(8-{[(3S,4R)-3-fluoro-1-methylpiperidin-4-yl]amino}-3-(N-methylprop-2-enamido)imidazo[1,2-a]pyridine-2-yl)prop-2-yn-1-yl]amino}-3-methoxy-N-methylbenzamide] | 5 to 10 °C | < 70% | > 3 µM | > 3000 nM | > 3000 nM | ≥ 10 µM | –
COc1cc(S(C)(=O)=O)ccc1NCC#Cc1nc2c(NC3CCN(C)CC3)cc(O)cn2c1CC(F)(F)F [Example 27, 2-{3-[(4-methanesulfonyl-2-methoxyphenyl)amino]prop-1-yn-1-yl}-8-[(1-methylpiperidin-4-yl)amino]-3-(2,2,2-trifluoroethyl)imidazo[1,2-a]pyridin-6-ol, TFA salt] | 5 to 10 °C | < 70% | > 3 µM | > 3000 nM | > 3000 nM | ≥ 10 µM | –
